Measurements published in US9593149B2, “Amylin and calcitonin receptor agonist” (Novo Nordisk A/S, priority 2014, dated 2017).
Numbered stars: 1 amine (or outer) side, 2 acyl side, 3 side chain; on linkers, the order of the positions; unused ones are H or OH. Side chains are listed from the residue outwards. Peptide text beside a SMILES is read from it. * marks the point of attachment. C20 diacid = O=C(O)CCCCCCCCCCCCCCCCCCC(=O)*; C18 diacid = O=C(O)CCCCCCCCCCCCCCCCC(=O)*; γGlu = O=C(O)[C@H](CCC(=O)[*:2])N[*:1]

How the values were obtained:
[1] = biological target: T1, human amylin 3(a) receptor (human calcitonin receptor + RAMP-3), BHK570 cells (Homo sapiens, UniProt O60896+P30988); test: Assay (II)a functional CRE-luciferase assay with albumin, human amylin receptor; format: cell-based; conditions: Tested with HSA; read-out: hAmylin-R funct. EC50
T1 construct: host or cells: BHK570
How it was run: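 BHK570 cells stably carry a CRE-luciferase reporter and the calcitonin receptor; co-transfected RAMP-3 gives the amylin 3(a) receptor line. Cells were treated for 3 h at 37 °C in DMEM with 10% FBS and 10 mM Hepes, pH 7.4. cAMP-driven luciferase was read by LucLite luminescence after 30 min at RT.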

[2] = biological target: T2, human amylin receptor (Amylin 3(a)/CRE-luc cell membranes) (Homo sapiens, UniProt O60896+P30988); test: Assay (V) binding to the human amylin receptor (membrane, SPA); conditions: 125I-rat amylin, read-out: hAmylin-R binding IC50
T2 construct: host or cells: BHK570
T2 sequence (P30988 25-474): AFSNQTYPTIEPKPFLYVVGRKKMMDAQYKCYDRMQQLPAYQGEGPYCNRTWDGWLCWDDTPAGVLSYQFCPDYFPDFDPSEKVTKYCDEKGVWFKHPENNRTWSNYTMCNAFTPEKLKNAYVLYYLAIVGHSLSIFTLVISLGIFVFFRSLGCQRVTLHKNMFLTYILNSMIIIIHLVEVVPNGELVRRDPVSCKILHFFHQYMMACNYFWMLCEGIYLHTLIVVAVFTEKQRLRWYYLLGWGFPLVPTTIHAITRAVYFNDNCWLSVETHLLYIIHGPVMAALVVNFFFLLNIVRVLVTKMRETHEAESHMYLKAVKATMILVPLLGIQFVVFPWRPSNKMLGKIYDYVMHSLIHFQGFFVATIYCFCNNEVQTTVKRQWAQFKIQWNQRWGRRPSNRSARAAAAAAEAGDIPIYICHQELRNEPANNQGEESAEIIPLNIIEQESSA
T2 sequence (O60896 24-148 partner): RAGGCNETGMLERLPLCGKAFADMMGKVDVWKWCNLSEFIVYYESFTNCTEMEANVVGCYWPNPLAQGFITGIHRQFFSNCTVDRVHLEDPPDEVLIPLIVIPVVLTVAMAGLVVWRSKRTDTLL
Experimental: The binding assay was performed using scintillation proximity assay (SPA) beads (RPNQ0001) from PerkinElmer and cell membranes from the Amylin 3(a)/CRE-luc cells (as described in Assay (II)) were used. Membranes were prepared in the following way; the cells were rinsed with PBS and incubated with Versene for approximately 5 min before harvesting. The cells were flushed with PBS and the cell-suspension was centrifuged for 5 min at 1000 rpm. Cells were homogenized (ultrathurrax) in a buffer containing 20 mM Na-HEPES and 10 mM EDTA (pH 7.4) and centrifuged at 20.000 rpm for 15 min. The resulting pellet was resuspended, homogenized and centrifuged (20.000 rpm, 15 min) in a buffer containing 20 mM Na-HEPES and 0.1 mM EDTA (pH 7.4, buffer 2). The resulting pellet was resuspended in buffer 2 and protein concentration was tested (BCA protein Assay, Pierce). The homogenate was kept cold during the whole procedure. The membranes were kept at −80° C. until use. The assay was performed in a 384 well Optiplate (PerkinElmer) in a total volume of 40 ul. Membranes were mixed with SPA beads. Final concentration of membranes 35 ng/μL final and SPA beads was 0.05 mg/well. […] Samples were analyzed on TopCounter™ (Packard). The IC50 was calculated using (one site binding competition analysis) GraphPad Prism5 as a measure of receptor affinity.

EC50 [1] [nM]	IC50 [2] [nM]	SMILES
0.072	0.05	CC(=O)N[C@@H](C)C(=O)N[C@@H](CO)C(=O)N[C@@H](CCCCNC(=O)CC[C@H](NC(=O)CCCCCCCCCCCCCCCCCCC(=O)O)C(=O)O)C(=O)N[C@@H](CC(C)C)C(=O)N[C@@H](CO)C(=O)N[C@H](C(=O)N[C@@H](C)C(=O)N[C@@H](C)C(=O)N[C@@H](CC(C)C)C(=O)NCC(=O)N[C@@H](CCCNC(=N)N)C(=O)N[C@@H](CC(C)C)C(=O)N[C@@H](CO)C(=O)N[C@@H](C)C(=O)N[C@@H](CCC(=O)O)C(=O)N[C@@H](CC(C)C)C(=O)N[C@@H](Cc1c[nH]cn1)C(=O)N[C@@H](CCC(=O)O)C(=O)N[C@@H](CC(C)C)C(=O)N[C@@H](C)C(=O)N[C@H](C(=O)N[C@@H](CC(C)C)C(=O)N1CCC[C@H]1C(=O)N[C@@H](CCCNC(=N)N)C(=O)N[C@H](C(=O)N[C@@H](CCC(=O)O)C(=O)N[C@H](C(=O)NCC(=O)N[C@@H](CO)C(=O)NCC(=O)N[C@@H](CO)C(=O)N1CCC[C@H]1C(N)=O)[C@@H](C)O)[C@@H](C)O)[C@@H](C)O)[C@@H](C)O [compound 68, [N-terminal(acetyl), des1, 4K(C20 diacid-gGlu), 30S, 31G]mimylin] (Ac-ASK([γGlu-C20 diacid])LSTAALGRLSAELHELATLPRTETGSGSP-NH2)
	0.309	CC(C)C[C@H](NC(=O)[C@H](CCC(=O)O)NC(=O)[C@H](C)NC(=O)[C@@H](NC(=O)[C@H](CC(C)C)NC(=O)[C@H](CCCNC(=N)N)NC(=O)CNC(=O)[C@H](CC(C)C)NC(=O)[C@@H](NC(=O)[C@H](C)NC(=O)[C@@H](NC(=O)[C@@H](NC(=O)[C@H](CC(C)C)NC(=O)[C@H](CCC(=O)O)NC(=O)[C@H](CO)NC(=O)[C@H](C)NC(=O)CC[C@H](NC(=O)CCCCCCCCCCCCCCCCC(=O)O)C(=O)O)[C@@H](C)O)[C@@H](C)O)C(C)C)[C@@H](C)O)C(=O)N[C@@H](Cc1c[nH]cn1)C(=O)N[C@@H](CCC(=O)O)C(=O)N[C@@H](CC(C)C)C(=O)N[C@@H](CCC(=O)O)C(=O)N[C@H](C(=O)N[C@@H](CC(C)C)C(=O)N1CCC[C@H]1C(=O)N[C@@H](CCCNC(=N)N)C(=O)N[C@H](C(=O)N[C@@H](CCC(=O)O)C(=O)N[C@H](C(=O)NCC(=O)N[C@H](C(=O)NCC(=O)N[C@H](C(=O)N1CCC[C@H]1C(N)=O)[C@@H](C)O)[C@@H](C)O)[C@@H](C)O)[C@@H](C)O)[C@@H](C)O [compound 105, [N-terminal(C18 diacid-gGlu), des1, 6T, 9V, 14T, 21E, 30T, 31G, 32T]mimylin] ({C18 diacid-γGlu}-ASELTTAVLGRLTAELHELETLPRTETGTGTP-NH2)
0.142		CC(C)C[C@H](NC(=O)[C@H](CCCNC(=N)N)NC(=O)CNC(=O)[C@H](CC(C)C)NC(=O)[C@@H](NC(=O)[C@H](C)NC(=O)[C@@H](NC(=O)[C@H](CO)NC(=O)[C@H](CC(C)C)NC(=O)[C@H](CCC(=O)O)NC(=O)[C@H](CO)NC(=O)[C@H](C)NC(=O)CC[C@H](NC(=O)CCCCCCCCCCCCCCCCCCC(=O)O)C(=O)O)[C@@H](C)O)C(C)C)C(=O)N[C@@H](CO)C(=O)N[C@@H](CCC(N)=O)C(=O)N[C@@H](CCC(=O)O)C(=O)N[C@@H](CC(C)C)C(=O)N[C@@H](Cc1c[nH]cn1)C(=O)N[C@@H](CCC(=O)O)C(=O)N[C@@H](CC(C)C)C(=O)N[C@@H](CCC(N)=O)C(=O)N[C@H](C(=O)N[C@@H](Cc1ccc(O)cc1)C(=O)N1CCC[C@H]1C(=O)N[C@@H](CCCNC(=N)N)C(=O)N[C@H](C(=O)N[C@@H](CCC(=O)O)C(=O)N[C@H](C(=O)NCC(=O)N[C@@H](CO)C(=O)NCC(=O)N[C@H](C(=O)N[C@@H](Cc1ccc(O)cc1)C(N)=O)[C@@H](C)O)[C@@H](C)O)[C@@H](C)O)[C@@H](C)O [compound 114, [N-terminal(C20 diacid-gGlu), des1, 9V, 15Q, 21Q, 23Y, 30S, 31G, 32T, 33Y]mimylin]
